The record followed here is ChEMBL document CHEMBL4706694, “Novel bicyclic pyrazoles as potent ALK2 (R206H) inhibitors for the treatment of fibrodysplasia ossificans progressiva” (Bioorg Med Chem Lett, 2021).

As usually defined, the Papp A→B is how fast a substance crosses the layer from the apical side. One may read the IC50 as the concentration that gives 50% inhibition. A word on the inhibition: it is the percentage by which the read-out fell short of the control. Low values mean a weak effect, high ones a strong effect.

Data set [1] has as its target MDR1 (ABCB1, P-glycoprotein) (Homo sapiens, UniProt P08183). The data set is described as follows: Substrate activity at human MDR1 expressed in MDCK-II cells assessed as apparent permeability across apical to basolateral membrane at 10 uM by LC-MS/MS analysis. It is filed as ADME, cell-based.
Data set [2] can be described thus: Inhibition of ALK2 R206H in mouse C2C12 cells assessed as reduction in BMP-induced ALP activity using p-nitrophenyl phosphate as substrate.
A short description of data set [3]: Metabolic stability in human liver microsomes assessed as parent compound remaining incubated for 60 mins in presence of NADPH by LC-MS/MS analysis. The class given is ADME, Microsome. Particulars: read-out: Stabilty. (Liver microsomes are vesicles of endoplasmic reticulum, rich in cytochrome P450 enzymes.)
Another data set has as its target hERG (KCNH2) (Homo sapiens, UniProt Q12809). The data set is described as follows: Inhibition of human ERG at 10 uM by automated patch method relative to control.
Data set [4] is described as follows: Metabolic stability in rat liver microsomes assessed as parent compound remaining incubated for 60 mins in presence of NADPH by LC-MS/MS analysis. Particulars: read-out: Stabilty.

Some results are limits rather than exact numbers.

Sequence of MDR1 (ABCB1, P-glycoprotein) (P08183 whole entry): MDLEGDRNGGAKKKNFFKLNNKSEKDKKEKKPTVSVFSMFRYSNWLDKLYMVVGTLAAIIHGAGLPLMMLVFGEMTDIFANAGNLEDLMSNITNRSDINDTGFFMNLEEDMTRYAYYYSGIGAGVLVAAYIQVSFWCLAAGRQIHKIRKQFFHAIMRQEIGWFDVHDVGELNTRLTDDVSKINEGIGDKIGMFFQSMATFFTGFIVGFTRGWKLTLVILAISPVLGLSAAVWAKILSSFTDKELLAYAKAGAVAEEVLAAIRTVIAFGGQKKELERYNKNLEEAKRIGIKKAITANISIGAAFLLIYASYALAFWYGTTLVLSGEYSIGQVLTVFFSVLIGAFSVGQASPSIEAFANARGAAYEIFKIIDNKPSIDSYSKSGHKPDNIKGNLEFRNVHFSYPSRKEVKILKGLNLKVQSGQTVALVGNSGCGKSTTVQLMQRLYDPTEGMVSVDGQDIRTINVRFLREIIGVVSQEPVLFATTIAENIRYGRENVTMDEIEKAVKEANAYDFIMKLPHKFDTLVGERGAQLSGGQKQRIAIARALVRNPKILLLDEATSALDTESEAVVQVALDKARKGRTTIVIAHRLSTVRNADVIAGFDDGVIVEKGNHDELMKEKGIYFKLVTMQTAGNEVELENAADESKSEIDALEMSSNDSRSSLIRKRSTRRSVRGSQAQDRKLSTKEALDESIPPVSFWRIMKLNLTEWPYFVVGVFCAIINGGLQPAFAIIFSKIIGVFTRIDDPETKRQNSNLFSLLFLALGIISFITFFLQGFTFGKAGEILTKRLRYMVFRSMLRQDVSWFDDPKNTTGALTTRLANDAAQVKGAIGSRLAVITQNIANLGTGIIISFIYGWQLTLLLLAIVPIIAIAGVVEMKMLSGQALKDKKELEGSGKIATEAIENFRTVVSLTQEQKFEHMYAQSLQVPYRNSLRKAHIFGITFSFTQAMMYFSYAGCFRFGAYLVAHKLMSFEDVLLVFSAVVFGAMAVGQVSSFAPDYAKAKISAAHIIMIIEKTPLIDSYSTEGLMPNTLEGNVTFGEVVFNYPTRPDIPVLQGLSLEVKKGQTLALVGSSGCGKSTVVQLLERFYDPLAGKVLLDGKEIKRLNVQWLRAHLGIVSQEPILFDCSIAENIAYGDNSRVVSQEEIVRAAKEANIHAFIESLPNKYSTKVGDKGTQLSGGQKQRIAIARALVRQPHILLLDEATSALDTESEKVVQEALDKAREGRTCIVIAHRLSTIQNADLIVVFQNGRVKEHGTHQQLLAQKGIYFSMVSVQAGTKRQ
Sequence of hERG (KCNH2) (Q12809 whole entry): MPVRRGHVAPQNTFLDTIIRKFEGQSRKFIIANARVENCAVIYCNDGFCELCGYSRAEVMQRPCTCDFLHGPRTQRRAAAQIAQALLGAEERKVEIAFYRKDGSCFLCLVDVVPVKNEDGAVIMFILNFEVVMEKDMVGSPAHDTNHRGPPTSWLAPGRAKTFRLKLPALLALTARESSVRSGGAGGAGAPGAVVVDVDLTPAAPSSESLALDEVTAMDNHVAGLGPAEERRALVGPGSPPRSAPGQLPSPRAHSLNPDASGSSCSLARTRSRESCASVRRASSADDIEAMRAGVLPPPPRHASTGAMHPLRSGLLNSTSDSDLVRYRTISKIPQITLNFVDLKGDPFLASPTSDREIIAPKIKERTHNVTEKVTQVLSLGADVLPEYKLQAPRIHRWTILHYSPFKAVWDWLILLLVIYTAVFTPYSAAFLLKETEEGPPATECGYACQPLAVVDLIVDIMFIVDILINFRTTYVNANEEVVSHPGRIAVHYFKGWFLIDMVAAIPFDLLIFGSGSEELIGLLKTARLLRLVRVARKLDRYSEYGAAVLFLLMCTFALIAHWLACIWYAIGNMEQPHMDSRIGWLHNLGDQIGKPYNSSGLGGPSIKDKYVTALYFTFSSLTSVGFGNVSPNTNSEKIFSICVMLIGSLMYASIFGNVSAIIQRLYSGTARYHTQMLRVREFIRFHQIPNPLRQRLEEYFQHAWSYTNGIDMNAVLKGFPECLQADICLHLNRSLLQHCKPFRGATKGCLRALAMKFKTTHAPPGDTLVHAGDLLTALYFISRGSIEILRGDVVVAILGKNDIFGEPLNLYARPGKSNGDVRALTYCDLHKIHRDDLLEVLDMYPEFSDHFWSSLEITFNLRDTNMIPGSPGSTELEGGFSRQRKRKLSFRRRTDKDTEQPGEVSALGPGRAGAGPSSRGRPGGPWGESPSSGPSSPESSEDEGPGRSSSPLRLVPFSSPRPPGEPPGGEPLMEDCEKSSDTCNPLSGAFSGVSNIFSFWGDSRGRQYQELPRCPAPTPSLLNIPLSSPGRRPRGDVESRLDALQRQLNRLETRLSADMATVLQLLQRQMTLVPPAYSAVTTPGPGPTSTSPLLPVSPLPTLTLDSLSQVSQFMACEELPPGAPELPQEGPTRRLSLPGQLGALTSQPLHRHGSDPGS

On to `c1cncc(-c2nn3c(c2-c2ccnc(Nc4ccc(N5CCNCC5)cc4)n2)COCC3)c1`, for which the Papp A→B at 10 µM in data set [1] was 0.906 ×10⁻⁶ cm/s.
In the case of `COCCN1CCN(c2ccc(Nc3nccc(-c4c(-c5cccnc5)nn5c4COCC5)n3)cc2)CC1`, in data set [1], the Papp A→B at 10 µM amounted to 8.69 ×10⁻⁶ cm/s. The IC50 in data set [2] came to 37.3 nM. Further, the remaining at 1 h in data set [3] turned out to be 56%; in data set [4], 40.5%. In addition, the inhibition at 10 µM against hERG (KCNH2) was 3.6%.
`CN1CCN(c2ccc(Nc3nccc(-c4c(-c5cccnc5)nn5c4COCC5)n3)cc2)CC1`: the Papp A→B at 10 µM in data set [1] was 4.37 ×10⁻⁶ cm/s.
For the compound `COc1ccc(Nc2nccc(-c3c[nH]nc3-c3cccnc3)n2)cc1`, in data set [2], the 50% inhibitory concentration (IC50) is more than 100 nM. The remaining at 1 h in data set [3] is 14.8%; in data set [4], 2.1%.
